Experimental data published in US20220030866A1, “CONJUGATES OF AUXIN ANALOGS” (The State of Israel, Ministry of Agriculture & Rural …, priority 2019, published 2022).
Marks after values point to notes of the source that are not given here.

Assays:
Type in all cases: in vivo
[1] = test system: argan (Argania spinosa) cuttings; assay: rooting of argan cuttings; conditions: 100 μM conjugate with 6000 ppm IBA
Procedure, shortened: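 Cuttings in a commercial nursery were treated with 100 μM conjugate plus 6000 ppm IBA. Controls were talc with 8000 ppm IBA and fungicide (T-8), or 6000 ppm IBA alone.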

[2] = test system: Eucalyptus brachyphylla cuttings; assay: rooting of Eucalyptus brachyphylla cuttings; conditions: for mean root number per cutting, E. brachyphylla: K-IBA alone or with 100 μM compound; for mean root length, E. brachyphylla, relative to IBA alone, in words: K-IBA with 100 μM compound
Procedure: In order to investigate cloning of productive eucalyptus trees from cuttings, branches were excised from mature Eucalyptus x trabutii and Eucalyptus brachyphylla trees the field (in Kfar Pines, Israel)—selected based on their exceptional nectar production and honeybee attraction—placed in a humidified cooler box and brought to a climate-controlled greenhouse within 2 hours. Each cutting, 7 cm long, included three nodes with only two leaves remaining at its apical end. Two-thirds of each blade was excised to minimize evapotranspiration. The cutting bases were submerged for 1 minute in 6 grams/liter indole-3-butyric acid potassium salt (K-IBA), optionally supplemented with Compound 1s or 1t at a concentration of 100 μM. In addition, the leaves were sprayed with 100 μM of each compound in the presence of 0.05% Triton X-100 surfactant. Stock solutions of Compounds 1s and 1t were at a concentration of 100 mM in DMSO. The cuttings were planted in rooting medium containing peat, vermiculite and polystyrene flakes at a ratio of 1:2:3 respectively, on a heated rooting table under 90% humidity. Fungicides were applied to the rooting media on a weekly basis. Rooting percentage, number of roots per cutting and root length were measured after 1 and 2 weeks and after 1 and 2 months.

[3] = test system: cuttings from mature Eucalyptus grandis trees; assay: rooting of cuttings from mature Eucalyptus grandis trees; conditions: for appearance of the roots compared with IBA alone: 6000 ppm IBA with 100 μM compound
Procedure, shortened: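 Cuttings (12-15 cm, two upper leaves halved) from branches of 8-year-old net-house plants; bases dipped 1 min in 6000 ppm IBA potassium salt plus 50 μM conjugate, leaves sprayed with 50 μM conjugate in 0.5% Triton X-100. Rooted at 25° C, 90% humidity, peat:vermiculite:polystyrene 1:2:3; rooting scored after 30-60 days.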

[4] = test system: avocado rootstock cuttings; assay: rooting of avocado rootstock cuttings; conditions: vc51 rootstock, IBA with compound
Procedure, shortened: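 Green cuttings of avocado rootstock (including hard-to-root VC801) were treated with auxin conjugates in the presence of IBA and scored for rooting.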

[5] = test system: Pinus halepensis cuttings; assay: rooting and root development in pine cuttings; conditions: 400 ppm IBA potassium salt + 5 ppm conjugate, 4 hours dip; 12 weeks
Procedure: The effects of exemplary D-amino acid conjugates of 4-CPA (Compounds to and Is) on rooting in Pinus halepensis cuttings were compared with those of 2-DP-glycine methyl ester conjugate (2-DP-Gly). Rooting mature pine cuttings (i.e., cuttings that are taken from trees more than 4 years old) is very difficult.
Apical cuttings were taken from 7-year-old trees, stored for 4 weeks at 4° C., and treated by dipping the cutting bases for 4 hours in the following solution: 400 ppm IBA potassium salt+5 ppm tested conjugate+0.1% Amistar™ fungicide (250 grams/liter azoxystrobin). The cuttings were evaluated after 12 weeks.

[6] = IBA with 100 μM compound, submersion and spraying

SMILES	rooting percentage in argan compared with IBA alone, in words [1]	mean root number per cutting, E. brachyphylla [2]	mean root length, E. brachyphylla, relative to IBA alone, in words [2]	percentage of adventitious root formation (rooting) ([3]; 6000 ppm IBA and 100 μM conjugate by submersion of base plus spraying of foliage)	appearance of the roots compared with IBA alone ([3]; submersion and spraying)	number of root tips compared with IBA alone (WinRHIZO) [3, 6]	total root length compared with IBA alone (WinRHIZO) [3, 6]	roots per cutting of green avocado branches compared with etiolated branches treated with IBA, in words [4]	rooting success rate of green avocado branches, in words ([4]; compared with IBA alone)	Degree of root development Medium (%) [5]	Degree of root development Weak (%) [5]	Degree of root development Well-developed (%) [5]	Rooting rate (%) [5]
COC(=O)[C@H](Cc1c[nH]c2ccccc12)NC(=O)COc1ccc(Cl)cc1 [Compound 1t, 4-CPA-L-Trp]	considerably higher rooting percentages	about 2	enhanced mean root length	51±7%	appeared more branched	considerably enhanced the number of root tips	considerably enhanced the total root length	–	–	–	–	–	–
COC(=O)[C@@H](Cc1c[nH]c2ccccc12)NC(=O)COc1ccc(Cl)cc1 [Compound 1s, 4-CPA-D-Trp]	considerably higher rooting percentages	about 2	enhanced mean root length	–	appeared more branched	–	–	considerably more roots per cutting	considerably enhanced the rooting success rate	0%	6.2%	81.3* %	92.9%
